Drawing on BindingDB's records for patent US20250320228 (Merck Patent, 2025), this text covers IC50 for ten compounds.

pIC50: −log10 of the molar value.

The experiment deals with Mitogen-activated protein kinase kinase kinase kinase 1 (Homo sapiens, UniProt Q92918). The experiment in a line: HPK1 Kinase Assay. Here is the method: A recombinant fusion protein consisting of full-length human HPK1 (MAP4K1) with an N-terminal Glutatione S-transferase (GST) tag was produced in insect cells Sf21 using the baculovirus expression system. GST-HPK1 protein was purified from cell lysates by glutathione Sepharose affinity chromatography. The assay is run in three continuous steps: 1) the HPK1 enzymatic kinase reaction, 2) an ATP depletion, and 3) the ADP detection, the steps 2 and 3 are performed with ADP-Glo™ Kinase Assay kit from Promega (V9101). Test compounds were prepared by 10-point serial dilution in dimethyl sulfoxide (DMSO) and 100 nL of each dilution was spotted onto a 384-well Optiplate (Perkin Elmer and Cat #6007299) by Labcyte Echo. 5 μL kinase reaction buffer (0.02% Brij-35, 2 mM DTT, 50 mM HEPES pH 7.5, MgCl2 10 mM, BSA 0.01% and β-glycerophosphate 12.5 mM) containing HPK1 (3.2 nM) enzyme was transferred to each well and incubated for 15 minutes at room temperature at 60% humidity. The enzymatic reaction was started by adding 5 μl of Start-Mix (10 μM ATP and 3.235 μM MBP). After 120 minutes, the reaction was stopped by adding 5 μL of ADP-Glo reagent (Promega, V9101) and incubating for 40 min. in the dark at 23° C. To determine the level of ADP, 10 μl ADP-Glo Detection solution was added and incubated for 1 hour at 23° C. in the dark. The plate was transferred to a Perkin Elmer EnVision (2104 Multilabel Reader) for luminescence detection and percent inhibition activity and IC50 value were determined using Genedata Screener.
Mitogen-activated protein kinase kinase kinase kinase 1, sequence (Q92918 whole entry, the tested form may be a part): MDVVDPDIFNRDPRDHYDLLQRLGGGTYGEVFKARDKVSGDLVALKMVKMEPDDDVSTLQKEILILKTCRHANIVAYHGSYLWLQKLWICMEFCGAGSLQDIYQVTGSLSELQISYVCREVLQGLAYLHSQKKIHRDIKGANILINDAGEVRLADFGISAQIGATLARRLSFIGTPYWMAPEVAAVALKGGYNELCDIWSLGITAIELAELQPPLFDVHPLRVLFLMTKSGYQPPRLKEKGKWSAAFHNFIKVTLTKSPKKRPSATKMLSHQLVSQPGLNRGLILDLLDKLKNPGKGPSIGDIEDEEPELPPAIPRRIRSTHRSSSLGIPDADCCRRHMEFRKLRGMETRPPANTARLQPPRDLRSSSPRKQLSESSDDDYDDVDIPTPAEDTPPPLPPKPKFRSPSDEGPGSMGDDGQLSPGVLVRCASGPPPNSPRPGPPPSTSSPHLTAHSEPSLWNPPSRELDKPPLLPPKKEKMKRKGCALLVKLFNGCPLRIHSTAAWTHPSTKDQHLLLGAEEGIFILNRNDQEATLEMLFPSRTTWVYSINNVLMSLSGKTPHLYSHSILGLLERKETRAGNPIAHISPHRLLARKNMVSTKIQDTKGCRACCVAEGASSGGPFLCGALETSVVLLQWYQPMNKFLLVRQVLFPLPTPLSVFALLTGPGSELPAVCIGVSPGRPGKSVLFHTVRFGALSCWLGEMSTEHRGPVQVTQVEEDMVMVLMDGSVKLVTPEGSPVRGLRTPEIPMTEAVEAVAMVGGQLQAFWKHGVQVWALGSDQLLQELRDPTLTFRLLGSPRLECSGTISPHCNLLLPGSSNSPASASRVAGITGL
`NC(=O)c1cc(-c2ccc(OC(F)(F)F)cc2)nc2c(N[C@@H]3CNC[C@H](F)C3)ncnc12` [US20250320228, Example 71]: the pIC50 is > 7.00.

Take `N#C[C@H]1COCCN1Cc1ccc(-c2cc(C(N)=O)c3ncnc(N[C@H]4CCCNC4)c3n2)cc1` [US20250320228, Example 14]: the pIC50 was > 7.00.

Take `NC(=O)c1cc(-c2ccc(CN3CCOCC3)cc2)nc2c(N[C@@H]3CNC[C@H](F)C3)ncnc12` [US20250320228, Example 26]: the pIC50 was > 7.00.

`CN1CCc2cc(-c3cc(C(N)=O)c4ncnc(N[C@H]5CCCNC5)c4n3)nn2CC1=O` [US20250320228, Example 45]: the pIC50 is > 7.00.

`NC(=O)c1cc(-c2ccc(CN3CCOCC3)cc2)nc2c(NC34CNCC3C4)ncnc12` (stereo not given) [US20250320228, Example 20]: the pIC50 was > 7.00.

Consider `C[C@@H](N)CNc1ncnc2c(C(N)=O)cc(-c3ccc(CN4CCOCC4)cc3)nc12` [US20250320228, Example 25], for which the pIC50 was > 7.00.

For the compound `NC(=O)c1cc(-c2cc(F)c(OCC3(O)CCC3)c(F)c2)nc2c(N[C@H]3CCCNC3)ncnc12` [US20250320228, Example 39], the pIC50 was > 7.00.

With `COCc1n[nH]c(-c2cc(C(N)=O)c3ncnc(N[C@H]4CCCNC4)c3n2)n1` [US20250320228, Example 13], the pIC50 was < 6.00.

As to `NC(=O)c1cc(-c2ccc(CN3CCOC[C@H]3C(F)(F)F)cc2)nc2c(N[C@H]3CCCNC3)ncnc12` [US20250320228, Example 15], the pIC50 was > 7.00.

Consider `NC(=O)c1cc(-c2ccc(CN3CCOCC3)cc2)nc2c(N3CC[C@@H](F)[C@H](N)C3)ncnc12` [US20250320228, Example 22], for which the pIC50 was < 6.00.

As a reminder, the pIC50 is the negative decadic logarithm of the IC50, by convention in mol/L. Read a high pIC50 as a low IC50.
